Measurements: BindingDB's records for doi:10.1124/jpet.103.062794 (Neurosearch, 2004)
Several values for one entry are separate records, joined by “and”; a condition that tells them apart may be missing. Equal values may be shown once.

What was measured:
[1] = target: Glutamate receptor ionotropic, kainate 2 (Homo sapiens, UniProt Q13002)
[2] = target: Glutamate receptor ionotropic, kainate 1 (Homo sapiens, UniProt P39086)
Sequence of Glutamate receptor ionotropic, kainate 1 (P39086 whole entry): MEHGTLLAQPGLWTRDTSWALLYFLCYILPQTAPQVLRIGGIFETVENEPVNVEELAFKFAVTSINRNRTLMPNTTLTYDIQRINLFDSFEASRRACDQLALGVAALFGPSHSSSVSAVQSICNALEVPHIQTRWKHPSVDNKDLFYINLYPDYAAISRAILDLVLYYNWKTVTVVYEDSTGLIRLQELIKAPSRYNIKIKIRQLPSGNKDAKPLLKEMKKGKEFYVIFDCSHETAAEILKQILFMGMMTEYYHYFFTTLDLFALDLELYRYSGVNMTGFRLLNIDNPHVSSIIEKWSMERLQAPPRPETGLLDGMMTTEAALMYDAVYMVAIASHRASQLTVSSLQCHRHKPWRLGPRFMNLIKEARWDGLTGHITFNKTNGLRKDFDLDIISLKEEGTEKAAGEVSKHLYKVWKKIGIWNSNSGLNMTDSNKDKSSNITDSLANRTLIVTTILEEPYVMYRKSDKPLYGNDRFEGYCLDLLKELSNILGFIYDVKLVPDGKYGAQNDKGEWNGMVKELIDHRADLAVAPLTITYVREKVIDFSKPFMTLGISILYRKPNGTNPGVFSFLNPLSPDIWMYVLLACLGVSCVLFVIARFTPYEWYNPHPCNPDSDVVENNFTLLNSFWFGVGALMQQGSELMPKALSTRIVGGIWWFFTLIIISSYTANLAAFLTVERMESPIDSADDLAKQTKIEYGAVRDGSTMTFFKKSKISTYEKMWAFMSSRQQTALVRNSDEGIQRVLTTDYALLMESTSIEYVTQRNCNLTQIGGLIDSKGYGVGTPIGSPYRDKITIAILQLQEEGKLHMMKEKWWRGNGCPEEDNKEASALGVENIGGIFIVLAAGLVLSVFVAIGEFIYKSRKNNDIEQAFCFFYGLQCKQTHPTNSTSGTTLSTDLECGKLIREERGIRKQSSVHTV

Sequence of Glutamate receptor ionotropic, kainate 2 (Q13002 whole entry): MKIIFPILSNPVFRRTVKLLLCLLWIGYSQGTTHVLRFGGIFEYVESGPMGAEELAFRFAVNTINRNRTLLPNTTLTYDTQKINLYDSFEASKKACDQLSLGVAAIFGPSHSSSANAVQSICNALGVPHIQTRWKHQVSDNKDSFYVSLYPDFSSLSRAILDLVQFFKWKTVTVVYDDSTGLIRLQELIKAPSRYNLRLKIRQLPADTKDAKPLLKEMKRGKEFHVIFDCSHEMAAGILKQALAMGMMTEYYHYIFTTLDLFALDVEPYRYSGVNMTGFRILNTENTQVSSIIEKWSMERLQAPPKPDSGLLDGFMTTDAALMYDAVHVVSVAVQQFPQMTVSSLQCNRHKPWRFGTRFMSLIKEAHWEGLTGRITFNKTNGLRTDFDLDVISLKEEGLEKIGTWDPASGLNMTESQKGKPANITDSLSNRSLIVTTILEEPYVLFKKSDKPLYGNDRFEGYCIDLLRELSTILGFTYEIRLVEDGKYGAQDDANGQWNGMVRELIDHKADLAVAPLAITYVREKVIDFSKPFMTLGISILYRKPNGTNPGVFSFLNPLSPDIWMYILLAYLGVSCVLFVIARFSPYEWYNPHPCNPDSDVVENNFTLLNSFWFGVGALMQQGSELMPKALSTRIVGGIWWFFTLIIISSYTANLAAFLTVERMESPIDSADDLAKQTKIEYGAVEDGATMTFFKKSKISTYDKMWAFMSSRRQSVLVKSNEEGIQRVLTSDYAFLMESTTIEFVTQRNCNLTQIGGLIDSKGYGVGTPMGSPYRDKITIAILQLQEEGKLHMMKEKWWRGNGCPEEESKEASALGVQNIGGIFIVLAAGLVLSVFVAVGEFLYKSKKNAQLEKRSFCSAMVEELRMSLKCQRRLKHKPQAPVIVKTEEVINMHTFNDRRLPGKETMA

SMILES: CN1CCc2c(-c3ccc(S(=O)(=O)N(C)C)cc3)cc3c(c2C1)NC(=O)/C3=N\OC(CCO)C(=O)O (stereo not drawn) [SPD 502]
- Ki [1]: > 10 µM

SMILES: O=C(Nc1cc(NC(=O)c2ccccc2)c(C(=O)O)cc1C(=O)O)c1ccccc1 [NS3763]
- Ki [2]: > 10000 nM and 1600 nM
- Ki [1]: > 30 µM
